# Laboratory results as given in patent US20180044316A1, “POTENTIATORS OF BETA-LACTAM ANTIBIOTICS” (UNIVERSITY OF NOTRE DAME DU LAC, priority 2015, published 2018).
# “And” between values parts separate entries of the source, which are not always exact repeats. Equal values may be shown once. Read-outs that look alike come from different tables or passages of the source.
# Legend:
# [1] = tested on: S. aureus MRSA252; assay: MIC determination (broth microdilution), oxacillin with or without kinase inhibitor; assay type: cell-based, Staphylococcus aureus; conditions: for MIC: Staphylococcus aureus; for MIC of oxacillin in the presence of compound: compound at 7 μg/mL
# Experimental: A protein-kinase inhibitor library of 80 known compounds was tested in a 96-well format against strain MRSA252 for the screening. We first determined MICs (broth microdilution method) (CLSI, Performance Standards for Antimicrobial Susceptibility Testing; Twenty-Second Informational Supplement. CLSI document M100-S22. Clinical and Laboratory Standards Institute; Wayne, Pa.) for all the inhibitors in the library, in case some of them might have antibacterial properties of their own, which could complicate the analysis.
# This rapid initial screening identified compound 1 as meeting the selection criteria of lowering the MIC for oxacillin, which was followed up by the actual evaluation of the MIC of oxacillin against S. aureus MRSA252 in the presence of the inhibitor.
# (§1) Minimal-inhibitory concentration (MIC) determination. Determination of MICs was done by the microdilution method cation-adjusted in Mueller-Hinton II Broth (CAMHB II, BBL) in accordance with the protocols of CLSI (Performance Standards for Antimicrobial Susceptibility Testing; Twenty-Second Informational Supplement. CLSI document M100-S22. Clinical and Laboratory Standards Institute Wayne, Pa.). A final bacterial inoculum of 5×10^5 CFU/mL was used, and the results were recorded after incubation for 16-20 h at 37° C.
# [2] = tested on: BlaR1 phosphorylation; assay: BlaR1 phosphorylation by western blot in CBAP-induced NRS128 whole-cell extracts; assay type: cell-based, Staphylococcus aureus NRS128; conditions: NRS128 induced with 10 μg/mL CBAP, compound at 7 or 17 μg/mL
# Experimental: Next, we tested the effect of exposure of CBAP-induced NRS128 to this kinase inhibitor. Cultures were induced with 10 μg/mL CBAP in the presence of 0, 7, or 17 μg/mL of compound 1. Whole-cell extracts of these bacteria were analyzed for BlaR1 phosphorylation by western blot using anti-Phos-Ser and anti-Phos-Tyr antibodies. Compound 1 inhibited both the phosphotyrosine and phosphoserine kinase activities by as much as 70-90% (FIG. 4).
# Detection of BlaR1 phosphorylation in presence of antibiotic. As we had disclosed in a recent publication on fragmentation of BlaR1 during the course of induction, we detect a cleavage at position S283-F284 of BlaR1 (Llarrull et al., J. Biol. Chem. 2011, 286, 38148-38158). This proteolytic cleavage cuts the BlaR1 protein into two fragments of roughly equal sizes (approx. 30-31 kDa). […]
# Extracts were prepared as previously described in buffer containing 50 mM Tris pH 7.5, 150 mM NaCl, 2 mM EDTA, 0.55% SDS, 2.5% Triton X-100, and Halt Protease and Phosphatase Inhibitor Cocktail (Thermo Scientific, Waltham, Mass., U.S.A.) and analyzed by Western blot using antibodies against phosphothreonine, phosphotyrosine, and phosphoserine. A ˜30 kDa protein band was detected by the phosphotyrosine and phosphoserine specific antibodies only in cell extracts of S. aureus cells grown with CBAP (FIG. 2). This band was not detected by the phosphothreonine antibody. […]
# [3] = tested on: MRSA strain NRS123; assay: MIC determination (broth microdilution), oxacillin with or without kinase inhibitor; assay type: cell-based, Staphylococcus aureus; conditions: for MIC of oxacillin in the presence of compound: compound at 7 μg/mL
# Text: (§2) We evaluated the new imidazole analogues for their ability to lower the MIC of oxacillin against MRSA in the same manner as for the kinase inhibitor library. In addition to MRSA252, we expanded our investigation to include strains NRS123 and NRS70, both of which have 95% sequence identities between their BlaR1 proteins and that of NRS128, with the bla operon encoded on plasmids (pMW2 and pN315, respectively).
# as §1
# [4] = tested on: MRSA strain NRS70; assay: as above; assay type: cell-based, Staphylococcus aureus; conditions: for MIC of oxacillin in the presence of compound: compound at 7 μg/mL
# Text: as §2, §1
# [5] = tested on: BlaR1 phosphorylation; assay: BlaR1 phosphorylation by western blot in CBAP-induced NRS70 whole-cell extracts; assay type: cell-based, Staphylococcus aureus NRS70; conditions: for tyrosine phosphorylation of the BlaR1 fragment: NRS70, CBAP-induced, 7 μg/mL inhibitor; for serine phosphorylation of BlaR1 fragment: NRS70, even at 17 μg/mL
# Experimental: We then evaluated the ability of compounds 10, 11 or 12 to inhibit tyrosine phosphorylation of BlaR1 in NRS70 extracts. The bacteria were grown under the conditions described earlier for NRS128, induced by CBAP in the absence and presence of 0.7 μg/mL or 7 μg/mL compounds 10, 11 or 12, and analyzed by western blot using antibody against phosphotyrosine (FIG. 5a). […] However, serine phosphorylation was not inhibited by any of these compounds, even at 17 μg/mL (FIG. 6), in contrast to the case of 1, which had inhibited both. This provides evidence for the critical nature of tyrosine phosphorylation for regulation of BlaR1.
# To overcome this, we subsequently cleared all S. aureus extracts of Protein A and other immunoglobulin-binding proteins by incubation with IgG Sepharose (GE Healthcare, Little Chalfont, UK) for 1-2 h at room temperature with gentle agitation. After a brief centrifugation, the total protein in the supernatant was quantified by a BCA assay and 20 μg was loaded onto an 11% SDS-PAGE gel. Following electrophoresis, samples were transferred to a nitrocellulose membrane in a 10 mM CAPS (pH 11) buffer containing 10% methanol. Membranes were blocked in 3% BSA for phosphoserine blots or Blotto (3% BSA, 3% milk in TBS) for phosphotyrosine blots. HRP-conjugated primary antibody was applied in either 1% BSA/TBST (phosphoserine, Abcam, Cambridge, UK) or 1.1% milk/TBST (phosphotyrosine, 4G10 Platinum, EMD Millipore, Billerica, Mass., U.S.A.). Phosphoserine blots were developed with Pierce ECL Substrate (Thermo Scientific) and phosphotyrosine blots were developed with SuperSignal West Dura Extended Duration Substrate (Thermo Scientific), then exposed to X-ray film for an appropriate amount of time (30-600 s).
# [6] = biological target: T1, Stk1 protein kinase (Staphylococcus aureus, UniProt A0ABF7PGK0); assay: In vitro phosphorylation assay: Stk1 autophosphorylation; assay type: biochemical, S. aureus strain NRS70; conditions: IC50, inhibition of Stk1 autophosphorylation, [γ-32P]-ATP 20 μM
# Text: (§3) Cloning, expression, and purification of S. aureus Stk1 protein kinase. The stk1 gene for Stk1 protein kinase (SA1063 in S. aureus NRS70) is conserved in all known genomic sequences for S. aureus (Beltramini et al., Infect. Immun. 77, 1406-1416 (2009); Débarbouillé et al., J. Bacteriol. 191, 4070-4081 (2009); Didier et al., FEMS Microbiol. Lett. 306, 30-36 (2010)). We PCR-amplified the DNA fragment corresponding to the entire coding sequences of stk1 from S. aureus strain NRS70 chromosomal DNA with primers STK1fw (5′-[…] […]-3′) and STK1rev (5′-[…] […]-3′). The amplified DNA fragments were then digested with NdeI and XhoI restriction enzymes and cloned into pET28a. After verification of the inserts by DNA sequencing on both strands, the resulting plasmid (termed pETstk1) was introduced into E. coli strain BL21(DE3) for protein expression.
# (§4) For purification of Stk1, 5 mL of an overnight culture of BL21(DE3) harboring pETstk1 was inoculated into 500 mL fresh LB medium and grown at 37° C. until the OD600 reached 0.8. Isopropyl β-D-1-thiogalactopyranoside (IPTG) was then added to the culture to a final concentration of 0.5 mM and the culture was shaken at 15° C. overnight. The culture was then centrifuged at 5000 rpm at 4° C. for 15 min. The pellet was resuspended in 20 mL of lysis buffer (25 mM HEPES, 500 mM NaCl, 10 mM imidazole, pH 7.4). After sonication, the lysate was centrifuged at 18,000 g at 4° C. for 45 min. The resulting supernatant containing the His-tagged Stk1 was loaded onto a 5-mL Hitrap Chelating column (GE Healthcare), followed by elution with a linear gradient of imidazole (0-500 mM) in lysis buffer. The fractions containing Stk1 were pooled, concentrated and the buffer was exchanged to 25 mM HEPES, pH 7.4. The resulting sample was then subjected to Q anion-exchange chromatography and eluted with a linear gradient of NaCl (0-1 M). Protein purity was ascertained by sodium dodecyl sulfate polyacrylamide gel electrophoresis (SDS-PAGE) (FIG. 7).
# (§5) In vitro phosphorylation assay. […] Band intensities were quantified using GelQuant software. […]
# [7] = biological target: T1, Stk1 protein kinase; assay: In vitro phosphorylation assay: phosphorylation of myelin basic protein (MBP) by Stk1; assay type: biochemical, S. aureus strain NRS70; conditions: IC50, inhibition of MBP phosphorylation by Stk1, [γ-32P]-ATP 20 μM
# Text: as §3, §4, §5
# [8] = Staphylococcus aureus, no inhibitor
# T1 sequence (A0ABF7PGK0 entry or part of it): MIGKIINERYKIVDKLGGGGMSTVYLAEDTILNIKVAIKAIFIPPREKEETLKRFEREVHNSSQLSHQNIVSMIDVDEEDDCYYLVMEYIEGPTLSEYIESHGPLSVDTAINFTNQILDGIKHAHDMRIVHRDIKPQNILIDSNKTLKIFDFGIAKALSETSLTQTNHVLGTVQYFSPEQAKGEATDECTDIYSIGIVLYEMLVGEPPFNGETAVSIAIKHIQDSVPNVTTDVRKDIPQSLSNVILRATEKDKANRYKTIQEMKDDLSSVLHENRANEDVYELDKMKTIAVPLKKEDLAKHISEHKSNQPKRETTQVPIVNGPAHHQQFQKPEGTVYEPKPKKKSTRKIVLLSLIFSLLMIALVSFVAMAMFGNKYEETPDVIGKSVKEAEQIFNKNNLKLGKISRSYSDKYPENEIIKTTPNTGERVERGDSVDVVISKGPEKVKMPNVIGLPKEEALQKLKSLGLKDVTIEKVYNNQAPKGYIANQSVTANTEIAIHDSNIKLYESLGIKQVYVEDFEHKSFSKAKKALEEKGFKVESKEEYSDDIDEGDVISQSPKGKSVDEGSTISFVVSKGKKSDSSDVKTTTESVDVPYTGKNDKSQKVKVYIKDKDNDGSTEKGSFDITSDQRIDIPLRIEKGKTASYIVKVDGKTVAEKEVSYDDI
Compound,"MIC ([1]; without oxacillin, read-out: MIC of the kinase inhibitor alone)",decrease in the MIC of oxacillin ([1]; inhibitor at 7 μg/mL),inhibition of phosphoserine kinase activity (BlaR1 phosphorylation) ([2]; anti-Phos-Ser western blot),inhibition of phosphotyrosine kinase activity (BlaR1 phosphorylation) ([2]; anti-Phos-Tyr western blot),MIC of oxacillin in the presence of compound [1],MIC of oxacillin in the presence of compound [3],MIC of oxacillin in the presence of compound [4],tyrosine phosphorylation of the BlaR1 fragment [5],serine phosphorylation of BlaR1 fragment [5],IC50 [6],IC50 [7],"MIC ([1]; no inhibitor, read-out: MIC of oxacillin)","MIC [3, 8]","MIC [4, 8]"
"Oc1ccc(-c2nc(-c3ccc(F)cc3)c(-c3ccncc3)[nH]2)cc1 [Compound 1, reference compound]",≥ 64 mg/L,four-fold decrease,70-90%,70-90%,–,–,–,–,–,–,–,–,–,–
"CC(C)Cc1ccc(-c2nc(-c3ccc(F)cc3)c(-c3ccncc3)[nH]2)cc1 [Compound 12, 2-(4-iso-Butylphenyl)-4-(4-fluorophenyl)-5-(4-pyridyl)imidazole]",–,–,–,–,4 mg/L,4 mg/L,0.5 mg/L,almost completely abolished,not inhibited,16.2 µM and 17 µM and 18 µM,16.2 µM and 15.3 µM,–,–,–
"CC(C)(C)c1ccc(-c2nc(-c3ccc(F)cc3)c(-c3ccncc3)[nH]2)cc1 [Compound 10, 2-(4-tert-Butylphenyl)-4-(4-fluorophenyl)-5-(4-pyridyl)imidazole]",–,–,–,–,2 mg/L,8 mg/L,4 mg/L,almost completely abolished,not inhibited,8.35 µM and 8.8 µM,5.65 µM and 6.1 µM,–,–,–
"CCc1ccc(-c2nc(-c3ccc(F)cc3)c(-c3ccncc3)[nH]2)cc1 [Compound 11, 2-(4-Ethylphenyl)-4-(4-fluorophenyl)-5-(4-pyridyl)imidazole]",–,–,–,–,16 mg/L,4 mg/L,0.5 mg/L,almost completely abolished,not inhibited,14.6 µM and 14.9 µM and 14.7 µM,11.6 µM and 12.2 µM and 12 µM,–,–,–
"Cc1onc(-c2ccccc2)c1C(=O)N[C@@H]1C(=O)N2[C@@H]1SC(C)(C)[C@@H]2C(=O)O [oxacillin, reference compound]",–,–,–,–,–,–,–,–,–,–,–,256 mg/L,16 mg/L,32 mg/L
